Measurements as given in DBAASP.
≈ marks a conversion by molar mass, not a printed value. Where “and” joins values, the source holds several entries; their conditions need not be identical. Identical values can stand only once. Values belong to the compound of their own block, whether it stands above or below them.

What was measured:
Assay in all cases: ≥ marks a high value that may be exact or a test limit, other limits are often not marked, values filed in µg/mL are converted to µM
Rhizoctonia solani = system: Rhizoctonia solani
Candida albicans = system: Candida albicans
[1] = system: Candida albicans ATCC 1023
Fusarium solani = system: Fusarium solani
[2] = system: Staphylococcus aureus ATCC 29313
[3] = system: Candida albicans ATCC 90028
[4] = system: Streptococcus dysgalactiae
[5] = system: Xanthomonas axonopodis pv. glycines ISBF 327
Ramulariopsis gossypii = system: Ramulariopsis gossypii
Trichoderma asperellum = system: Trichoderma asperellum
[6] = system: Pseudomonas syringae pv. tabaci
Candida tropicalis = system: Candida tropicalis
[7] = system: Cryptococcus neoformans ATCC 28957
Staphylococcus aureus = system: Staphylococcus aureus
[8] = system: Staphylococcus aureus ATCC 25923
[9] = system: Bacillus subtilis ATCC 23857
[10] = system: Acinetobacter calcoaceticus
Streptococcus uberis = system: Streptococcus uberis
[11] = system: Pectobacterium carotovorum
[12] = system: Xanthomonas campestris pv. citri
Escherichia coli = system: Escherichia coli
[13] = system: Bacillus cereus ATCC 14579
Fusarium oxysporum = system: Fusarium oxysporum
[14] = system: Staphylococcus aureus CCARM 3543
[15] = system: Pseudomonas aeruginosa CCARM 2095
[16] = system: Staphylococcus aureus ATCC 9144
[17] = system: Escherichia coli KCTC 1682
[18] = system: Pseudomonas aeruginosa PAO1
[19] = system: Acinetobacter baumannii ATCC 17978
[20] = system: Klebsiella pneumoniae NCTC 13368
[21] = system: Pseudomonas aeruginosa NCTC 13437
[22] = system: Pseudomonas aeruginosa KCTC 1637
[23] = system: Staphylococcus aureus CCARM 3001
[24] = system: Escherichia coli NCTC 12923
[25] = system: Staphylococcus epidermidis KCTC 1917
[26] = system: Staphylococcus aureus KCTC 1621
[27] = system: Staphylococcus aureus USA 300
[28] = system: Salmonella typhimurium KCTC 1926
[29] = system: Bacillus subtilis ATCC 6633
[30] = system: Candida albicans ATCC 90112
Streptococcus pyogenes = system: Streptococcus pyogenes
[31] = system: Pseudomonas aeruginosa ATCC 27853
[32] = system: Staphylococcus epidermidis
[33] = system: Escherichia coli ATCC 25922
Proteus mirabilis = system: Proteus mirabilis
[34] = system: Stenotrophomonas maltophilia ATCC 13637
[35] = system: Micrococcus luteus ATCC 10240
[36] = system: Staphylococcus aureus ATCC 6538
[37] = system: Candida albicans ATCC 36232
[38] = system: Micrococcus luteus ATCC 9341
[39] = system: Spiroplasma melliferum BC3
[40] = system: Acholeplasma laidlawii A-EF22
Spiroplasma citri R8A2 = system: Spiroplasma citri R8A2
[41] = system: Mycoplasma mycoides ssp. mycoides SC KH3J
[42] = system: Spiroplasma floricola BNR 1

SMILES: CC[C@H](C)[C@H](N)C(=O)N[C@@H](CC(C)C)C(=O)NCC(=O)N[C@@H](CCCCN)C(=O)N[C@H](C(=O)N[C@@H](Cc1c[nH]c2ccccc12)C(=O)N[C@@H](CCCCN)C(=O)N1CCC[C@H]1C(=O)N[C@H](C(=O)N[C@@H](CCCCN)C(=O)N[C@@H](CCCCN)C(=O)N[C@@H](CC(C)C)C(=O)N[C@@H](Cc1ccccc1)C(N)=O)[C@@H](C)CC)[C@@H](C)CC [ILGKIWKPIKKLF]
MIC [14]: 0.5 µM (≈ 0.792 µg/mL)
MIC [15]: 1 µM (≈ 1.58 µg/mL)
MIC [16]: 5.05 µM (≈ 8 µg/mL)
MIC [17]: 2 µM (≈ 3.17 µg/mL)
MIC [18]: > 80.8 µM
MIC [19]: 5.05 µM (≈ 8 µg/mL)
MIC [20]: ≥ 40.4 µM
MIC [21]: ≥ 40.4 µM
MIC [22]: 2 µM (≈ 3.17 µg/mL)
MIC [23]: 1 µM (≈ 1.58 µg/mL)
MIC [24]: 10.1 µM (≈ 16 µg/mL)
MIC [25]: 1 µM (≈ 1.58 µg/mL)
MIC [26]: 2 µM (≈ 3.17 µg/mL)
MIC [27]: ≥ 40.4 µM
MIC [28]: 1 µM (≈ 1.58 µg/mL)

SMILES: CC(C)[C@H](NC(=O)[C@H](CCCCN)NC(=O)[C@H](Cc1ccccc1)NC(=O)[C@@H](NC(=O)[C@@H](NC(=O)[C@H](CCCCN)NC(=O)[C@H](CCCCN)NC(=O)[C@@H](N)CCCCN)C(C)C)C(C)C)C(=O)N[C@@H](CCCCN)C(=O)N[C@@H](Cc1ccccc1)C(=O)N[C@@H](CCCCN)C(=O)N[C@@H](CCCCN)C(N)=O [KKKVVFKVKFKK]
MIC [36]: 2.08 µM (≈ 3.13 µg/mL)
MIC [37]: 4.15 µM and 2.08 µM
MIC [38]: 2.08 µM (≈ 3.13 µg/mL)

Further lines, with some results ahead:

MIC (Rhizoctonia solani): ≥ 64 µM
MIC (Candida albicans): 5.7 µM (≈ 15.9 µg/mL)
MIC [1]: 5.7 µM (≈ 15.9 µg/mL)
MIC (Fusarium solani): 16 µM (≈ 44.7 µg/mL)
MIC [3]: 4 µM (≈ 11.2 µg/mL)
MIC [4]: 5.7 µM (≈ 15.9 µg/mL)
MIC [5]: 1 µM (≈ 2.79 µg/mL)
MIC (Ramulariopsis gossypii): 8 µM (≈ 22.4 µg/mL)
MIC (Trichoderma asperellum): 8 µM (≈ 22.4 µg/mL)
MIC [6]: 1 µM (≈ 2.79 µg/mL)
MIC (Candida tropicalis): 0.37 µM (≈ 1.03 µg/mL)
MIC [7]: 8 µM (≈ 22.4 µg/mL)
MIC (Staphylococcus aureus): 12.8 µM and 5.7 µM
MIC [8]: 3.2 µM and 8 µM
MIC [9]: 1 µM (≈ 2.79 µg/mL)
MIC [10]: 25.7 µM (≈ 71.7 µg/mL)
MIC (Streptococcus uberis): 5.7 µM (≈ 15.9 µg/mL)
MIC [11]: 0.5 µM (≈ 1.4 µg/mL)
MIC [12]: 0.5 µM (≈ 1.4 µg/mL)
MIC (Escherichia coli): 6.42 µM (≈ 17.9 µg/mL)
MIC [13]: 16 µM (≈ 44.7 µg/mL)
MIC (Fusarium oxysporum): 16 µM (≈ 44.7 µg/mL)
SMILES: CC[C@H](C)[C@H](NC(=O)[C@H](C)NC(=O)[C@H](C)NC(=O)[C@H](CCC(=O)O)NC(=O)[C@H](CCCCN)NC(=O)CNC(=O)[C@H](CCCCN)NC(=O)[C@H](CCC(N)=O)NC(=O)[C@H](CCCCN)NC(=O)[C@@H](NC(=O)[C@@H](NC(=O)[C@H](CO)NC(=O)[C@H](Cc1c[nH]c2ccccc12)NC(=O)[C@H](CC(C)C)NC(=O)CN)[C@@H](C)O)[C@@H](C)CC)C(=O)N[C@@H](C)C(=O)N[C@@H](C)C(=O)N[C@@H](C)C(=O)N[C@@H](CCCCN)C(=O)N[C@@H](C)C(=O)N[C@@H](C)C(=O)NCC(=O)N[C@@H](CCC(N)=O)C(=O)N[C@@H](C)C(=O)N[C@@H](C)C(=O)N[C@@H](CC(C)C)C(=O)NCC(=O)N[C@@H](C)C(=O)N[C@@H](CC(C)C)C(N)=O [GLWSTIKQKGKEAAIAAAKAAGQAALGAL]
MIC [2]: 11 µM (≈ 30.7 µg/mL)

MIC [29]: 30 µM (≈ 45.1 µg/mL)
MIC [30]: 7.5 µM (≈ 11.3 µg/mL)
MIC (Streptococcus pyogenes): 30 µM (≈ 45.1 µg/mL)
MIC [31]: > 30 µM
MIC [32]: 30 µM (≈ 45.1 µg/mL)
MIC [33]: 30 µM (≈ 45.1 µg/mL)
MIC [8]: 30 µM (≈ 45.1 µg/mL)
MIC (Proteus mirabilis): ≥ 60 µM
MIC [34]: 30 µM (≈ 45.1 µg/mL)
MIC [35]: 30 µM (≈ 45.1 µg/mL)
SMILES: CC[C@H](C)[C@H](NC(=O)CNC(=O)[C@H](CCSC)NC(=O)[C@@H](NC(=O)[C@H](CC(=O)O)NC(=O)[C@@H](N)Cc1ccccc1)C(C)C)C(=O)N[C@H](C(=O)N[C@@H](CCCCN)C(=O)N[C@@H](CCCCN)C(=O)N[C@H](C(=O)N[C@@H](C)C(=O)N[C@@H](CO)C(=O)N[C@@H](C)C(=O)N[C@@H](CC(C)C)C(N)=O)[C@@H](C)CC)[C@@H](C)CC [FDVMGIIKKIASAL]

MIC [39]: 6.25 µM (≈ 11.6 µg/mL)
MIC [40]: 1.56 µM (≈ 2.91 µg/mL)
MIC (Spiroplasma citri R8A2): 6.25 µM (≈ 11.6 µg/mL)
MIC [41]: 6.25 µM (≈ 11.6 µg/mL)
MIC [42]: 6.25 µM (≈ 11.6 µg/mL)
SMILES: CC(C)C[C@H](NC(=O)[C@H](CCCCN)NC(=O)[C@H](CC(C)C)NC(=O)[C@H](CC(C)C)NC(=O)[C@H](CC(C)C)NC(=O)[C@H](CCCCN)NC(=O)[C@H](CC(C)C)NC(=O)[C@H](CC(C)C)NC(=O)[C@H](CC(C)C)NC(=O)[C@H](CCCCN)NC(=O)[C@H](CC(C)C)NC(=O)[C@H](CC(C)C)NC(=O)[C@@H](N)CCCCN)C(=O)N[C@@H](Cc1c[nH]c2ccccc12)C(=O)N[C@@H](CCCCN)C(=O)O [KLLKLLLKLLLKLWK]
